Data on 42 molecules can be found in patent US8431596B2 (Cancer Research Technology Limited, priority 2007, dated 2013).

For this assay, the target named is T1, AXL (human catalytic domain) (Homo sapiens, UniProt P30530).
T1 construct: purchased Upstate Ltd. 14-512
T1 sequence (P30530 473-894): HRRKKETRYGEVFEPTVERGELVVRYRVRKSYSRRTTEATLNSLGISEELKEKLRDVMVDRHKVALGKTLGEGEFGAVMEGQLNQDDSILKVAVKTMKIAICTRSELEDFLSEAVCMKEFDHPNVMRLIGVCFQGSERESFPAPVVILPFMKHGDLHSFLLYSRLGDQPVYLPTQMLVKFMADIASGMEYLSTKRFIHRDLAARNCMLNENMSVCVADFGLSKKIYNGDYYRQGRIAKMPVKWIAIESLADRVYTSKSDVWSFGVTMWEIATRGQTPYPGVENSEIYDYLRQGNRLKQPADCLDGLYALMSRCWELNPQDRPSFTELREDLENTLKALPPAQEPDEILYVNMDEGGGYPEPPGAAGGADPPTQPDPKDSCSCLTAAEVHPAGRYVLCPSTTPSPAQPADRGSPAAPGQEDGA
Put plainly: AXL (human catalytic domain) Enzyme Activity Assay (IMAP fluorescence polarisation). Format: biochemical. The protocol:
Biological Methods AXL (human catalytic domain) Enzyme Activity Assay Reagents
Kinase Assay Reaction Buffer: This consisted of 20 mM HEPES pH 7.0, 10 mM MgCl2, 1 mM DTT, […], 0.01% Triton X100 (v/v), and 0.01% BSA (w/v). All buffer components were purchased from Sigma-Aldrich at reagent grade or higher.
Kinase: Recombinant AXL isoform 1 (aa473-894 corresponding to Genbank Accession Number NP 068713) at 2 mg/mL (20.8 μM) was purchased from Upstate Ltd. (Product code 14-512, lot #28164U). The enzyme was stored at −80° C. and a working stock was prepared to a concentration of 30 nM by diluting 20.8 μM stock 1:693 in cold (4° C.) 1× Reaction Buffer. Final enzyme concentration in the assay was 15 nM.
Substrate: Fluorescein labelled CSK-tide 5FAM-[…]-NH2 was obtained from Molecular Devices (Product code R7270) and used at a working concentration of 200 nM by diluting the 100 μM stock 1:500 in 1× Reaction Buffer in a mix with the enzyme. A negative control (lacking enzyme) was prepared at the same concentrations. Final substrate concentration in the assay was 100 nM.
ATP: Supplied by Sigma (product code A-7699). A 100 mM ATP stock was prepared in […] and used at a working concentration of 375 μM by diluting the 100 mM stock 1:266.6 in Reaction Buffer. Final ATP concentration in the assay was 150 μM; this concentration represents the KM.ATP for this enzyme calculated in this assay.
IMAP Reagents: IMAP screening express kit was obtained from Molecular Devices (product code R8127). The binding reagent was gently re-suspended before diluting by 1:1000 in buffer (Binding Buffer is supplied as a 5× stock and so was diluted with water prior to use—this assay used 40% buffer A and 60% buffer B) and then vortexed before addition to wells. The binding reagent was used at a final dilution of 1:1333.
1 μL samples of test compounds in 10% DMSO/water were added to “test” wells by dry-spotting using a Matrix Platemate Plus. 5 μL Kinase/Substrate in Reaction Buffer were added to columns 1-22 of a Corning black low binding 384 well #6754 (90 μL volume) microplate to give 12 nM and 100 nM reaction concentration respectively. 5 μL substrate in Reaction Buffer was added to columns 23 and 24 to give 100 nM reaction concentration. 4 μL ATP in Reaction Buffer was added to all wells to give 150 μM reaction concentration. The reaction mixture was then incubated at room temperature for 60 minutes. The incubation period was followed by the addition of 20 μL IMAP Binding Reagent in Binding Buffer to all wells. The IMAP reaction detection was further incubated at room temperature overnight. The FP on a Tecan Ultra Plate reader was recorded as a single read at Ex485 Em535.
Percentage inhibition was calculated based on activity of the test sample minus the average values in the blank wells relative to the average values measured in control wells minus the average values in the blank wells.
IC50 values were calculated from 10 point dose sigmoid ‘dose-response’ curves using XIfit software (IDBS Inc, USA). Data were fitted to a 4 parameter logistic model/sigmoidal dose response defined by the following equation:
[formula] where: • A=fit minimum (locked to 0); • B=fit maximum (locked to 100); • C=fit midpoint (pre-fit to 1); and • D=slope at linear portion of curve, hillslope (pre-fit to 0.1).
The value for C represents the IC50 of the test compound.

Setting [1] is: further data set (WW-001 through WW-169, XX-001 through XX-469, YY-001 through YY-016, ZZ-001 through ZZ-003), 150 μM ATP.
Where [2] appears, read: first data set, recombinant AXL isoform 1 aa473-894, 150 μM ATP.

A word on the IC50: it is the concentration that gives 50% inhibition.

The molecule `COc1ccccc1-c1cccc2nc(Nc3ccc(OCCN4CCCC4)cc3)nn12` [XX-194] returned a 50% inhibitory concentration (IC50) under setting [1] of 1 to 10 µM. The molecule `CCN(CC)CCOc1c(C)cc(Nc2nc3cccc(-c4ccc(OC)cc4)n3n2)cc1C` [XX-416] displayed an IC50 under setting [1] not above 0.1 µM. The molecule `CCN(CC)CCOc1cccc(Nc2nc3cccc(-c4ccc(N(C)C)c(C)c4)n3n2)c1` [XX-147] displayed an IC50 under setting [1] of 0.1 to 1 µM. `CNCCCOc1ccc(Nc2nc3cccc(-c4ccc(OC)cc4)n3n2)cc1` [XX-040]: under setting [2], the IC50 is less than 1 µM. For `Cc1ccc(CNc2ccc(-c3cccc4nc(Nc5ccc(OCCN6CCCC6)cc5)nn34)cc2)cc1` [XX-267], the IC50 under setting [1] was 0.1 to 1 µM. In turn, `CCN(CC)CCCOc1ccc(Nc2nc3cccc(-c4ccc5c(c4)OCCO5)n3n2)cc1` [XX-329] gave a half-maximal inhibitory concentration (IC50) under setting [1] of 0.1 to 1 µM. For `O=C(Cc1cccc(Cl)c1)Nc1cccc(-c2cccc3nc(Nc4ccc(OCCN5CCCC5)cc4)nn23)c1` [XX-227, 2-(3-Chloro-phenyl)-N-(3-{2-[4-(2-pyrrolidin-1-yl-ethoxy)-phenylamino]-[1,2,4]triazolo[1,5-a]pyridin-5-yl}-phenyl)-acetamide], under setting [1], the IC50 is 1 to 10 µM. Still for that read-out and setting: next, `CCN(CC)CCNc1ccc(Nc2nc3cccc(-c4ccc5c(c4)OCCO5)n3n2)cc1` [XX-127]: not above 0.1 µM; `FC(F)(F)c1ccccc1COc1cccc(-c2cccc3nc(Nc4ccc(OCCN5CCCC5)cc4)nn23)c1` [XX-402]: 1 to 10 µM. Under setting [1], `c1cc(NCCCN2CCCCC2)cc(Nc2nc3cccc(-c4ccc5c(c4)OCCO5)n3n2)c1` [XX-131] displayed an IC50 not above 0.1 µM. As to `CCOc1ccc(-c2cccc3nc(NC(=O)C4CC4)nn23)cc1F` [WW-101], the IC50 by setting is: under setting [2], 1 to 10 µM; under setting [1], 1 to 10 µM. `COc1cc(Nc2nc3ccnc(-c4ccc5c(c4)OCCO5)n3n2)ccc1OCCN1CCCC1` [YY-008] came in with an IC50 under setting [1] of 0.1 to 1 µM.

`c1cc(-c2ccsc2)n2nc(Nc3ccc(OCCN4CCCC4)cc3)nc2c1` [XX-201] came in with an IC50 under setting [1] of 0.1 to 1 µM. Consider `c1cc(-c2ccc3c(c2)OCCO3)n2nc(Nc3ccc(OCCCN4CCCCC4)cc3)nc2c1` [XX-419], for which the IC50 under setting [1] lay within 0.1 to 1 µM. Turning to `O=C(Nc1nc2cccc(-c3ccc(F)c(O)c3)n2n1)C1CC1` [WW-097], the IC50 is less than 1 µM under setting [2] and 0.1 to 1 µM under setting [1].

With `c1ccc(Cn2cc(-c3nccc4nc(Nc5ccc(OCCN6CCCC6)cc5)nn34)cn2)cc1` [YY-011, [5-(1-Benzyl-1H-pyrazol-4-yl)-[1,2,4]triazolo[1,5-c]pyrimidin-2-yl]-[4-(2-pyrrolidin-1-yl-ethoxy)-phenyl]-amine], the IC50 under setting [1] was 0.1 to 1 µM. For `C[C@@H](CN)Oc1ccc(Nc2nc3cccc(-c4ccc5c(c4)OCCO5)n3n2)cc1` [XX-141], the IC50 under setting [1] was in the range of 0.1 to 1 µM. In the case of `c1ccc(Cn2cc(-c3cccc4nc(Nc5ccc(OCCCN6CCCCC6)cc5)nn34)cn2)cc1` [XX-423], under setting [1], the concentration for half-maximal inhibition (IC50) lay in the range of 0.1 to 1 µM. In the case of `O=C(Nc1nc2cccc(NC3CCCC3)n2n1)C1CC1` [WW-078], the IC50 is, setting by setting: under setting [2], 1 to 10 µM; under setting [1], 1 to 10 µM. In turn, `c1cc(-c2cn[nH]c2)n2nc(Nc3ccc(OCCN4CCCC4)cc3)nc2c1` [XX-202, [5-(1H-Pyrazol-4-yl)-[1,2,4]triazolo[1,5-a]pyridin-2-yl]-[4-(2-pyrrolidin-1-yl-ethoxy)-phenyl]-amine] displayed a concentration for half-maximal inhibition (IC50) under setting [1] of 0.1 to 1 µM.

Under setting [1], `CCOc1ccc(-c2nccc3nc(Nc4ccc(OCCN5CCCC5)cc4)nn23)cc1` [YY-007] showed an IC50 of 0.1 to 1 µM.

On to `CC(C)Oc1ccc(-c2cccc3nc(Nc4ccc(OCCN5CCCC5)cc4)nn23)cc1` [XX-012], for which the IC50 by setting is: under setting [2], less than 1 µM; under setting [1], 0.1 to 1 µM. For the molecule `Clc1cccc(COc2cccc(-c3cccc4nc(Nc5ccc(OCCN6CCCC6)cc5)nn34)c2)c1` [XX-330], the IC50 under setting [1] was in the range of 1 to 10 µM.

Consider `COc1ccc(-c2cccc3nc(Nc4ccc(OCCN5CCOCC5)cc4)nn23)cc1` [XX-005], for which the IC50 was less than 1 µM under setting [2] and not above 0.1 µM under setting [1]. `Cc1cccc(CNc2cccc(-c3cccc4nc(Nc5ccc(OCCN6CCCC6)cc5)nn34)c2)c1` [XX-455]: the IC50 under setting [1] was 1 to 10 µM. As for `CN1CCCC1CCNc1cccc2nc(NC(=O)C3CC3)nn12` (stereo not shown) [WW-076], the IC50 lay in the range of 1 to 10 µM under setting [2] and 1 to 10 µM under setting [1]. In the case of `COc1ccc(-c2cccc3nc(Nc4ccc(OCCNCc5ccc(N)cc5)cc4)nn23)cc1` [XX-034], the IC50 runs as follows: under setting [2], less than 1 µM; under setting [1], 0.1 to 1 µM.

As to `COc1ccc(-c2cccc3nc(Nc4ccc(OCCNCCN(C)C)cc4)nn23)cc1` [XX-027], the IC50 under setting [2] was less than 1 µM and the half-inhibitory concentration (IC50) under setting [1] fell in the range of 0.1 to 1 µM.

In the case of `O=C(NCCN1CCCC1)c1ccc(Nc2nc3cccc(-c4ccc5c(c4)OCCO5)n3n2)cc1` [XX-110], the IC50 under setting [1] is not above 0.1 µM.

Consider `CCN(CC)CCOc1cc(Nc2nc3cccc(-c4ccc5[nH]ccc5c4)n3n2)ccn1` [XX-363], for which, under setting [1], the IC50 was not above 0.1 µM. Under setting [1], `COc1ccc(-c2cccc(-c3cccc4nc(Nc5ccc(OCCN6CCCC6)cc5)nn34)c2)cc1` [XX-468] registered a concentration for half-maximal inhibition (IC50) of 1 to 10 µM. As to `CN1CCN(CCOc2ccc(Nc3nc4cccc(-c5ccc6c(c5)OCCO6)n4n3)cc2)CC1` [XX-077], the half-maximal inhibitory concentration (IC50) was less than 1 µM under setting [2] and not above 0.1 µM under setting [1]. As to `O=C(Cc1cccc(Cl)c1)Nc1ccc(-c2cccc3nc(Nc4ccc(OCCN5CCCC5)cc4)nn23)cc1` [XX-222], the IC50 under setting [1] was in the range of 1 to 10 µM. Under setting [1], `FC1(F)CCN(CCOc2ccc(Nc3nc4cccc(-c5ccc6c(c5)OCCO6)n4n3)cc2)C1` [XX-158] registered a 50% inhibitory concentration (IC50) of 1 to 10 µM. Take `CS(=O)(=O)Nc1cccc(-c2cccc3nc(NC(=O)C4CC4)nn23)c1` [WW-011, Cyclopropanecarboxylic acid [5-(3-methanesulfonylamino-phenyl)-[1,2,4]triazolo[1,5-a]pyridin-2-yl]-amide]: the IC50 under setting [2] lay in the range of 1 to 10 µM and the IC50 under setting [1] is 1 to 10 µM.

As for `NC(=O)c1cccc(-c2cccc3nc(NC(=O)C4CC4)nn23)c1` [WW-015], the IC50 under setting [2] is 1 to 10 µM and the IC50 under setting [1] was in the range of 1 to 10 µM. Molecule `Cc1ccc(-c2cccc3nc(Nc4ccc(OCCN5CCCC5)cc4)nn23)cn1` [XX-204] showed an IC50 under setting [1] of 1 to 10 µM. Same read-out and setting: next, `CC(C(=O)Nc1ccc(Nc2nc3cccc(-c4ccc5c(c4)OCCO5)n3n2)cc1)N1CCCC1` (stereo not shown) [XX-135]: 0.1 to 1 µM. Turning to `COc1ccc(-c2cccc3nc(Nc4cccc(OCCn5ccnc5)c4)nn23)cc1` [XX-015, [3-(2-Imidazol-1-yl-ethoxy)-phenyl]-[5-(4-methoxy-phenyl)-[1,2,4]triazolo[1,5-a]pyridin-2-yl]-amine], the IC50 was less than 1 µM under setting [2] and 0.1 to 1 µM under setting [1]. Taken in the same sequence, the figures for `Cc1cccc(-c2cccc3nc(NC(=O)C4CC4)nn23)c1` [WW-034] were 1 to 10 µM and 1 to 10 µM. `CCN(CC)CCOc1cc(Nc2nc3cccc(-c4ccc(OC)cc4)n3n2)ccc1C` [XX-415] came in with an IC50 under setting [1] of 0.1 to 1 µM. Regarding `Nc1nnc(SCCn2cc(-c3cccc4nc(Nc5ccc(OCCN6CCCC6)cc5)nn34)cn2)[nH]1` [XX-327, (5-{1-[2-(5-Amino-4H-[1,2,4]triazol-3-ylsulfanyl)-ethyl]-1H-pyrazol-4-yl}-[1,2,4]triazolo[1,5-a]pyridin-2-yl)-[4-(2-pyrrolidin-1-yl-ethoxy)-phenyl]-amine], the IC50 under setting [1] lay in the range of 1 to 10 µM.
